Measurements published in publication PMC8067737, “Synthesis and Biological Evaluation of Coumarin-Linked 4-Anilinomethyl-1,2,3-Triazoles as Potent Inhibitors of Carbonic Anhydrases IX and XIII Involved in Tumorigenesis” (Metabolites, 2021).
Read-outs that look alike come from different tables or passages of the source.

Experiments:
hCA II = hCA II (Homo sapiens, UniProt P00918); experiment: CA catalyzed CO2 hydration, stopped flow assay, hCA II
Excerpt: (§1) An SX.18V-R Applied Photophysics (Oxford, UK) stopped flow instrument has been used to assay the CA catalyzed CO2 hydration activity [26]. […] The inhibition constants were obtained by non-linear least squares methods using the Cheng-Prusoff equation, as reported earlier, and represent the mean from at least three different determinations.

hCA XIII = hCA XIII (Homo sapiens, UniProt Q8N1Q1); experiment: CA catalyzed CO2 hydration, stopped flow assay, hCA XIII; settings: Ki (nM) hCA XIII, recombinant enzyme; stopped flow technique; mean from 3 different assays, errors ±5–10%
Excerpt: as §1

hCA IX = hCA IX (Homo sapiens, UniProt Q16790); experiment: CA catalyzed CO2 hydration, stopped flow assay, hCA IX; settings: recombinant enzyme, stopped flow technique, mean from 3 different assays, errors ±5–10%
Excerpt: as §1

hCA I = hCA I (Homo sapiens, UniProt P00915); experiment: CA catalyzed CO2 hydration, stopped flow assay, hCA I
Chain of hCA I (P00915 whole entry): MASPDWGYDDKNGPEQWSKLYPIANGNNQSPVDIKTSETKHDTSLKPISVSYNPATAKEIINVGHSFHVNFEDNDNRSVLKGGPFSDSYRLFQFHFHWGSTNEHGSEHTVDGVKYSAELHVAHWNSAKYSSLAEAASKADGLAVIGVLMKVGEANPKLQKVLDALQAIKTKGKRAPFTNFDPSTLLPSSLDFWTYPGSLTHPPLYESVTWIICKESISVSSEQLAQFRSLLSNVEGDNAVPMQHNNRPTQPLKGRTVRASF
Excerpt: as §1

Chain of hCA XIII (Q8N1Q1 whole entry): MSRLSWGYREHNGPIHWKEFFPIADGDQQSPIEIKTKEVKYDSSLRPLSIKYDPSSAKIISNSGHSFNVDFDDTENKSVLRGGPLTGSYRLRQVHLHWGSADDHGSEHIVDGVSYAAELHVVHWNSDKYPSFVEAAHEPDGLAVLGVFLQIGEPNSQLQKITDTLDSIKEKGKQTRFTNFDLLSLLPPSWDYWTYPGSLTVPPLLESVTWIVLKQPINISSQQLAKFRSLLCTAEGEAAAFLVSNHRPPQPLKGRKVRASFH

Row | melting point [°C] | Ki (hCA II) [nM] | Ki (hCA XIII) [nM] | Ki (hCA IX; Ki (nM) hCA IX) [nM] | Ki (hCA I) [nM] | Ki (hCA IX; read-out: Ki (nM) hCA IX) [nM] | Compound
1 | 150 to 152 | > 50000 | 92.6 | 48.4 | > 50000 | – | Cc1ccc(NCc2cn(-c3ccc4oc(=O)ccc4c3)nn2)cc1 [Compound 6a, 6-(4-((p-tolylamino)methyl)-1H-1,2,3-triazol-1-yl)-2H-chromen-2-one]
2 | 159 to 161 | > 50000 | 90.1 | 60.8 | > 50000 | – | O=c1ccc2cc(-n3cc(CNc4ccccc4)nn3)ccc2o1 [Compound 6b, 6-(4-((phenylamino)methyl)-1H-1,2,3-triazol-1-yl)-2H-chromen-2-one]
3 | 140 to 142 | > 50000 | 950 | 73.3 | > 50000 | – | COc1ccc(NCc2cn(-c3ccc4oc(=O)ccc4c3)nn2)cc1 [Compound 6c, 6-(4-(((4-methoxyphenyl)amino)methyl)-1H-1,2,3-triazol-1-yl)-2H-chromen-2-one]
4 | 136 to 138 | > 50000 | 898 | 152 | > 50000 | – | O=c1ccc2cc(-n3cc(CNc4ccc(Cl)cc4)nn3)ccc2o1 [Compound 6d, 6-(4-(((4-chlorophenyl)amino)methyl)-1H-1,2,3-triazol-1-yl)-2H-chromen-2-one]
5 | – | > 50000 | 883 | < 50 | > 50000 | 36.3 | O=c1ccc2cc(-n3cc(CNc4ccc(Br)cc4)nn3)ccc2o1 [Compound 6e, 6-(4-(((4-bromophenyl)amino)methyl)-1H-1,2,3-triazol-1-yl)-2H-chromen-2-one]
6 | 152 to 155 | > 50000 | 8150 | 45 | > 50000 | – | CC(C)c1ccc(NCc2cn(-c3ccc4oc(=O)ccc4c3)nn2)cc1 [Compound 6f, 6-(4-(((4-isopropylphenyl)amino)methyl)-1H-1,2,3-triazol-1-yl)-2H-chromen-2-one]
7 | 157 to 159 | > 50000 | 903 | 64.8 | > 50000 | – | Cc1cc(C)c(NCc2cn(-c3ccc4oc(=O)ccc4c3)nn2)c(C)c1 [Compound 6g, 6-(4-((mesitylamino)methyl)-1H-1,2,3-triazol-1-yl)-2H-chromen-2-one]
8 | 172 to 174 | > 50000 | 905 | 73 | > 50000 | – | O=c1ccc2cc(-n3cc(CNc4ccc(Oc5ccccc5)cc4)nn3)ccc2o1 [Compound 6h, 6-(4-(((4-phenoxyphenyl)amino)methyl)-1H-1,2,3-triazol-1-yl)-2H-chromen-2-one]
9 | 230 to 234 | > 50000 | 896 | 85.7 | > 50000 | – | O=c1ccc2cc(-n3cc(CNc4cccc([N+](=O)[O-])c4)nn3)ccc2o1 [Compound 6i, 6-(4-(((3-nitrophenyl)amino)methyl)-1H-1,2,3-triazol-1-yl)-2H-chromen-2-one]
10 | 133 to 136 | > 50000 | 91.8 | 305 | > 50000 | – | O=c1ccc2cc(-n3cc(CNc4cccc(Br)c4)nn3)ccc2o1 [Compound 6j, 6-(4-(((3-bromophenyl)amino)methyl)-1H-1,2,3-triazol-1-yl)-2H-chromen-2-one]
11 | 246 to 248 | > 50000 | 6430 | 69.1 | > 50000 | – | O=c1ccc2cc(-n3cc(CNc4cccc(C(F)(F)F)c4)nn3)ccc2o1 [Compound 6k]
12 | 210 to 212 | > 50000 | 840 | 86.1 | > 50000 | – | O=c1ccc2cc(-n3cc(CNc4ccc(F)cc4)nn3)ccc2o1 [Compound 6l, 6-(4-(((4-fluorophenyl)amino)methyl)-1H-1,2,3-triazol-1-yl)-2H-chromen-2-one]
13 | 220 to 223 | > 50000 | 795 | 80.1 | > 50000 | – | Cc1cccc(NCc2cn(-c3ccc4oc(=O)ccc4c3)nn2)c1 [Compound 6m, 6-(4-((m-tolylamino)methyl)-1H-1,2,3-triazol-1-yl)-2H-chromen-2-one]
14 | 191 to 194 | > 50000 | 703 | 89.3 | > 50000 | – | Cc1cc(C)cc(NCc2cn(-c3ccc4oc(=O)ccc4c3)nn2)c1 [Compound 6n, 6-(4-(((3,5-dimethylphenyl)amino)methyl)-1H-1,2,3-triazol-1-yl)-2H-chromen-2-one]
15 | 134 to 137 | > 50000 | 95.4 | 92.7 | > 50000 | – | O=c1ccc2cc(-n3cc(CNc4cccc(Cl)c4)nn3)ccc2o1 [Compound 6o, 6-(4-(((3-chlorophenyl)amino)methyl)-1H-1,2,3-triazol-1-yl)-2H-chromen-2-one]
16 | 165 to 167 | > 50000 | 594 | 574 | > 50000 | – | O=c1ccc2cc(-n3cc(CNc4ccccc4I)nn3)ccc2o1 [Compound 6p, 6-(4-(((2-iodophenyl)amino)methyl)-1H-1,2,3-triazol-1-yl)-2H-chromen-2-one]
17 | 213 to 215 | > 50000 | 96.7 | 96.4 | > 50000 | – | O=c1ccc2cc(-n3cc(CNc4ccc(Cl)cc4[N+](=O)[O-])nn3)ccc2o1 [Compound 6q, 6-(4-(((4-chloro-2-nitrophenyl)amino)methyl)-1H-1,2,3-triazol-1-yl)-2H-chromen-2-one]
18 | 220 to 222 | > 50000 | 550 | 462 | > 50000 | – | Cc1cccc(NCc2cn(-c3ccc4oc(=O)ccc4c3)nn2)c1C [Compound 6r, 6-(4-(((2,3-dimethylphenyl)amino)methyl)-1H-1,2,3-triazol-1-yl)-2H-chromen-2-one]
19 | 204 to 206 | > 50000 | 664 | 90.9 | > 50000 | – | O=c1ccc2cc(-n3cc(CNc4cc(F)cc(F)c4)nn3)ccc2o1 [Compound 6s, 6-(4-(((3,5-difluorophenyl)amino)methyl)-1H-1,2,3-triazol-1-yl)-2H-chromen-2-one]
20 | 230 to 232 | > 50000 | 6030 | 643 | > 50000 | – | O=c1ccc2cc(-n3cc(CNc4ccccc4F)nn3)ccc2o1 [Compound 6t, 6-(4-(((2-fluorophenyl)amino)methyl)-1H-1,2,3-triazol-1-yl)-2H-chromen-2-one]
